We go through 21 compounds from US8268990B2, “Compounds” (AstraZeneca AB, priority 2007, dated 2012).

This experiment concerns the target T1, Recombinant human TLR7 (Homo sapiens, UniProt Q9NYK1).
T1 construct: expressed in transfected cells; host or cells: HEK293 cell line stably expressing the pNiFty2-SEAP reporter plasmid; TLR7 in vector pUNO, blasticidin selection
T1 sequence (Q9NYK1 27-1049): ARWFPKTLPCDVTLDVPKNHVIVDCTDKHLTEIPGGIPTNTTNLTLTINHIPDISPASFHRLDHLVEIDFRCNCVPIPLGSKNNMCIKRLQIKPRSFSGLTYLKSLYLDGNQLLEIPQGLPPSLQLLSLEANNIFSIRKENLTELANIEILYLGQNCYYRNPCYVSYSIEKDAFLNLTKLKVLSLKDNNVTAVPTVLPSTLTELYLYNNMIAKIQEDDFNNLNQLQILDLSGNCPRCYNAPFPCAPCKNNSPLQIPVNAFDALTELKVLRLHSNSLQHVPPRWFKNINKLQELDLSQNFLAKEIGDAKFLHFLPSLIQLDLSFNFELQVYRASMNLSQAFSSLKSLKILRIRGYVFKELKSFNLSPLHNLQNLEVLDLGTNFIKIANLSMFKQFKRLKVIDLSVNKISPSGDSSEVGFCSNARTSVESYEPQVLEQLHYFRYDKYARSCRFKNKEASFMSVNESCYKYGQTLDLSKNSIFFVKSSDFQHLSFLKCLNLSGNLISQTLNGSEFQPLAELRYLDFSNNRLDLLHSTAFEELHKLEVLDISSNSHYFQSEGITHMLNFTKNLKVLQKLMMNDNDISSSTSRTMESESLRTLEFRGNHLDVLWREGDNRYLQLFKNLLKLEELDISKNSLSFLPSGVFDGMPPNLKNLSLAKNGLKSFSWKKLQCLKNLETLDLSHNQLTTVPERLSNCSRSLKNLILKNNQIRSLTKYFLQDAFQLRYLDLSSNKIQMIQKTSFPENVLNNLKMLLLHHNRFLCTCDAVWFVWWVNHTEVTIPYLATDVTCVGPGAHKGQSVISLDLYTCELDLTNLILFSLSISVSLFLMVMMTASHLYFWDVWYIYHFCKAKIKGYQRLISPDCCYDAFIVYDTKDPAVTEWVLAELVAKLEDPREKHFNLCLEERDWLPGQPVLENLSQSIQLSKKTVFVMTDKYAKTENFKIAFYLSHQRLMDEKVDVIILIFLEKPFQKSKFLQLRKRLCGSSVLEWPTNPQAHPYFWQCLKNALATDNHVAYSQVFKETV
The experiment can be described thus: Human TLR7 Assay (SEAP reporter).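 Note: SEAP driven by an NFkB-responsive composite promoter, pEC50 read at half of each compound's own maximal SEAP induction.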 The experiment is classed as cell-based. The conditions noted are these: HEK293 cell line stably expressing human TLR7 and pNiFty2-SEAP reporter; SEAP induction after overnight incubation at 37° C., 0.1% (v/v) DMSO.

pEC50: −log10 of the molar value.

Excerpt: Recombinant human TLR7 was stably expressed in a HEK293 cell line already stably expressing the pNiFty2-SEAP reporter plasmid; integration of the reporter gene was maintained by selection with the antibiotic zeocin. The most common variant sequence of human TLR7 (represented by the EMBL sequence AF240467) was cloned into the mammalian cell expression vector pUNO and transfected into this reporter cell-line. Transfectants with stable expression were selected using the antibiotic blasticidin. In this reporter cell-line, expression of secreted alkaline phosphatase (SEAP) is controlled by an NFkB/ELAM-1 composite promoter comprising five NFkB sites combined with the proximal ELAM-1 promoter. TLR signaling leads to the translocation of NFkB and activation of the promoter results in expression of the SEAP gene. TLR7-specific activation was assessed by determining the level of SEAP produced following overnight incubation of the cells at 37° C. with the standard compound in the presence of 0.1% (v/v) dimethylsulfoxide (DMSO). Concentration dependent induction of SEAP production by compounds was expressed as the concentration of compound which produced half of the maximal level of SEAP induction for that compound (pEC50).

Regarding `CCCCNc1nc(N)nc(C)c1Cc1cc(CC(=O)OCC2CCN(C)CC2)ccc1OC` [Example 83, (1-Methylpiperidin-4-yl)methyl 2-(3-((2-amino-4-(butylamino)-6-methylpyrimidin-5-yl)methyl)-4-methoxyphenyl)acetate], the pEC50 was 7.70.

Regarding `CCCCCNc1nc(N)nc(C)c1Cc1cccc(CC(=O)OCCCCN2CCCC2)c1` [Example 84, 4-(Pyrrolidin-1-yl)butyl 2-(3-((2-amino-4-methyl-6-(pentylamino)pyrimidin-5-yl)methyl)phenyl)acetate], the pEC50 is 6.50.

Take `CCCCCNc1nc(N)nc(C)c1Cc1cccc(CC(=O)OCC2CCN(C)CC2)c1` [Example 85, (1-Methylpiperidin-4-yl)methyl 2-(3-((2-amino-4-methyl-6-(pentylamino)pyrimidin-5-yl)methyl)phenyl)acetate]: the pEC50 is 6.30.

Regarding `CCC[C@@H](CCO)Nc1nc(N)nc(C)c1Cc1ccc(CC(=O)OCCCCN(C)C)cc1F` [Example 86, (S)-4-(Dimethylamino)butyl 2-(4-((2-amino-4-(1-hydroxyhexan-3-ylamino)-6-methylpyrimidin-5-yl)methyl)-3-fluorophenyl)acetate], the pEC50 was 6.70.

With `CCC[C@@H](CCO)Nc1nc(N)nc(C)c1Cc1ccc(CC(=O)OCCCCN2CCN(C)CC2)cc1F` [Example 87, (S)-4-(4-Methylpiperazin-1-yl)butyl 2-(4-((2-amino-4-(1-hydroxyhexan-3-ylamino)-6-methylpyrimidin-5-yl)methyl)-3-fluorophenyl)acetate], the pEC50 is 7.60.

Consider `CCC[C@@H](CO)Nc1nc(N)nc(C)c1Cc1ccc(CC(=O)OC)cc1O` [Example 88, (S)-Methyl 2-(4-((2-amino-4-(1-hydroxypentan-2-ylamino)-6-methylpyrimidin-5-yl)methyl)-3-hydroxyphenyl)acetate], for which the pEC50 is 7.00.

`CCCCNc1nc(N)nc(C)c1Cc1ccc(CC(=O)OCCO)cc1OC` [Example 89, 2-Hydroxyethyl 2-(4-((2-amino-4-(butylamino)-6-methylpyrimidin-5-yl)methyl)-3-methoxyphenyl)acetate]: the pEC50 is 7.30.

Regarding `CCCCNc1nc(N)nc(C)c1Cc1ccc(CC(=O)OCCCCN2CCC(N(C)C)CC2)cc1OC` [Example 90, 4-(4-(Dimethylamino)piperidin-1-yl)butyl 2-(4-((2-amino-4-(butylamino)-6-methylpyrimidin-5-yl)methyl)-3-methoxyphenyl)acetate], the pEC50 was 7.60.

Turning to `CCCCNc1nc(N)nc(C)c1Cc1ccc(CC(=O)OCCCCO)cc1OC` [Example 91, 4-Hydroxybutyl 2-(4-((2-amino-4-(butylamino)-6-methylpyrimidin-5-yl)methyl)-3-methoxyphenyl)acetate], the pEC50 was 7.70.

In the case of `CCCCNc1nc(N)nc(C)c1Cc1ccc(CC(=O)OCCCS(C)(=O)=O)cc1OC` [Example 92, 3-(Methylsulfonyl)propyl 2-(4-((2-amino-4-(butylamino)-6-methylpyrimidin-5-yl)methyl)-3-methoxyphenyl)acetate], the pEC50 is 7.70.

`CCCCNc1nc(N)nc(C)c1Cc1ccc(CC(=O)OCCCO)cc1OC` [Example 93, 3-Hydroxypropyl 2-(4-((2-amino-4-(butylamino)-6-methylpyrimidin-5-yl)methyl)-3-methoxyphenyl)acetate]: the negative logarithm of the EC50 (pEC50) is 7.70.

As to `CCC[C@@H](CCO)Nc1nc(N)nc(C)c1Cc1ccc(CC(=O)OCCCCN(C)C)cc1` [Example 94, (S)-4-(Dimethylamino)butyl 2-(4-((2-amino-4-(1-hydroxyhexan-3-ylamino)-6-methylpyrimidin-5-yl)methyl)phenyl)acetate], the pEC50 was 6.90.

Turning to `CCCCNc1nc(N)nc(C)c1Sc1ccc(CC(=O)OCC2CCN(C)CC2)cc1` [Example 95, (1-Methylpiperidin-4-yl)methyl 2-(4-(2-amino-4-(butylamino)-6-methylpyrimidin-5-ylthio)phenyl)acetate], the pEC50 is 7.20.

Regarding `CCCCNc1nc(N)nc(C)c1Sc1ccc(CC(=O)OCCCCN2CCCC2)cc1` [Example 96, 4-(Pyrrolidin-1-yl)butyl 2-(4-(2-amino-4-(butylamino)-6-methylpyrimidin-5-ylthio)phenyl)acetate], the pEC50 was 7.30.

`CCCCNc1nc(N)nc(C)c1Cc1cc(CC(=O)OCCCCN(C)C)ccc1OC` [Example 97, 4-(Dimethylamino)butyl 2-(3-((2-amino-4-(butylamino)-6-methylpyrimidin-5-yl)methyl)-4-methoxyphenyl)acetate]: the pEC50 is 7.50.

As for `CCCCNc1nc(N)nc(C)c1Cc1cc(CC(=O)OC)ccc1OC` [Example 98, Methyl 2-(3-((2-amino-4-(butylamino)-6-methylpyrimidin-5-yl)methyl)-4-methoxyphenyl)acetate], the pEC50 is 7.30.

As to `CCCCNc1nc(N)nc(C)c1Cc1cc(CC(=O)OC)ccc1O` [Example 99, Methyl 2-(3-((2-amino-4-(butylamino)-6-methylpyrimidin-5-yl)methyl)-4-hydroxyphenyl)acetate], the pEC50 was 7.10.

As for `CCC[C@@H](CCO)Nc1nc(N)nc(C)c1Cc1ccc(CC(=O)OCCC2CCN(C)CC2)cc1F` [Example 100, (S)-2-(1-Methylpiperidin-4-yl)ethyl 2-(4-((2-amino-4-(1-hydroxyhexan-3-ylamino)-6-methylpyrimidin-5-yl)methyl)-3-fluorophenyl)acetate], the negative-log EC50 (pEC50) was 7.50.

With `CCCCNc1nc(N)nc(C)c1Cc1ccc(CC(=O)OCCc2scnc2C)cc1OC` [Example 101, 2-(4-Methylthiazol-5-yl)ethyl 2-(4-((2-amino-4-(butylamino)-6-methylpyrimidin-5-yl)methyl)-3-methoxyphenyl)acetate], the pEC50 was 7.40.

With `CCCCNc1nc(N)nc(C)c1Cc1ccc(CC(=O)OCCCCN(C)C)cc1O` [Example 102, 4-(Dimethylamino)butyl 2-(4-((2-amino-4-(butylamino)-6-methylpyrimidin-5-yl)methyl)-3-hydroxyphenyl)acetate], the pEC50 is 7.00.

With `CCCCNc1nc(N)nc(C)c1Cc1ccc(CC(=O)OCC2CCN(C)CC2)cc1O` [Example 103, (1-Methylpiperidin-4-yl)methyl 2-(4-((2-amino-4-(butylamino)-6-methylpyrimidin-5-yl)methyl)-3-hydroxyphenyl)acetate], the pEC50 is 6.90.

Broadly, the pEC50 is the EC50 on a negative log10 scale, so that one unit is a factor of ten.
